Laboratory results reported in paper PMC11944621, “Synthesis, Molecular Simulation, DFT, and Kinetic Study of Imidazotriazole-Based Thiazolidinone as Dual Inhibitor of Acetylcholinesterase and Butyrylcholinesterase Enzymes” (Pharmaceuticals, 2025).
Read-outs that look alike come from different tables or passages of the source.

Columns and labels:
[1] = biological target: T1, BChE (Homo sapiens, UniProt P06276); conditions: cited from earlier work
[2] = biological target: T2, AChE (Homo sapiens, UniProt P22303); conditions: previously reported thiazolidinone analog; read-out: IC50 against AChE; cited from earlier work
[3] = biological target: T2, AChE; assay: biochemical; conditions: in vitro, triplicate; read-out: AchE IC50 ± SEM
Procedure: (§1) With some modifications, inhibitory potential against AChE and BuChE was investigated according to the reported protocol. […] Added test compound (well-1) with volume of 10 µL and a concentration of 0.5 mM followed by the addition of an enzyme of 10 µL (0.005 unit well-1). Pre-incubation of substances at 37 °C for 10 min was achieved. Reaction was started by adding 10 µL of 0.5 mM well-1 substrate (acetylthiocholine iodide/ butyrylthiochloine chloride) followed by addition of 10 µL DTNB (0.5 mM well-1). […] All experiments were performed with their respective controls in triplicate. […] The % inhibition was computed using the following equation:Inhibition (%) = Control − Test/control × 100 […]
(§2) S.2 AChE and BuChE assay protocols
(§3) With a little bit modification, inhibitory potential against AChE and BuChE was investigated according to the reported protocol. The total volume of the reaction mixture was kept at 100 µL, […]
(§4) compound (well-1) with volume of 10µL and a concentration of 0.5mM followed by the addition of an enzyme of 10 µL (0.005 unit well-1). Pre-incubation of substances at 37 °C for 10 min was achieved. Reaction was started by addition of 10µL of 0.5mM well-1 substrate (acetylthiocholine iodide/ butyrylthiochloine chloride) followed by addition of 10µL DTNB (0.5mM well-1).
(§5) Synergy HT, BioTek, US. All experiments were done with their respective controls in triplicate.
(§6) The % inhibition was computed using the following equation
(§7) Inhibition (%) = Control – Test/control x 100
(§8) Control EZ-Fit Enzyme kinetics software (Perrella Scientific Inc. Amherst, USA) was used for the calculation of IC50 values. […]

[4] = biological target: T1, BChE; assay: biochemical; conditions: in vitro, triplicate; read-out: BChE IC50 ± SEM
Procedure: as §1, §2, §3, §4, §5, §6, §7, §8

[5] = tested on: enzyme; assay: Enzyme kinetics (mode of inhibition); format: biochemical
Excerpt: This is an in vitro approach, which measures the initial inhibition rate with the change in the inhibitor concentration.

T1 sequence (P06276 29-602): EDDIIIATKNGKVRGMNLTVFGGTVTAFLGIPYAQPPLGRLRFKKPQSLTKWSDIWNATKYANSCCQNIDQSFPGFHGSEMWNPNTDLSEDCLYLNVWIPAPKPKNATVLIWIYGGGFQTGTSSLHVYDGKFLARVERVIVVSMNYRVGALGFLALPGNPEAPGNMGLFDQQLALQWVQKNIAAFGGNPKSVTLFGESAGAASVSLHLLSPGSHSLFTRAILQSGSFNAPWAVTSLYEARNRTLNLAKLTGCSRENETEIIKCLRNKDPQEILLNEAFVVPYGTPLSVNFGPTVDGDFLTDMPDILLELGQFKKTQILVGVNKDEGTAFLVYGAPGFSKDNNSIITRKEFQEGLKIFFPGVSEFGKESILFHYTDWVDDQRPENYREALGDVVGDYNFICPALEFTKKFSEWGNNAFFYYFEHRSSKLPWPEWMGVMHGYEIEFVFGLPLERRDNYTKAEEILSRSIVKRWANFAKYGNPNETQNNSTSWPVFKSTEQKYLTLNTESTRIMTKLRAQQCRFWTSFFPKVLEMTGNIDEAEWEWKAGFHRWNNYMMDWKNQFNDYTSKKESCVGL
T2 sequence (P22303 32-614): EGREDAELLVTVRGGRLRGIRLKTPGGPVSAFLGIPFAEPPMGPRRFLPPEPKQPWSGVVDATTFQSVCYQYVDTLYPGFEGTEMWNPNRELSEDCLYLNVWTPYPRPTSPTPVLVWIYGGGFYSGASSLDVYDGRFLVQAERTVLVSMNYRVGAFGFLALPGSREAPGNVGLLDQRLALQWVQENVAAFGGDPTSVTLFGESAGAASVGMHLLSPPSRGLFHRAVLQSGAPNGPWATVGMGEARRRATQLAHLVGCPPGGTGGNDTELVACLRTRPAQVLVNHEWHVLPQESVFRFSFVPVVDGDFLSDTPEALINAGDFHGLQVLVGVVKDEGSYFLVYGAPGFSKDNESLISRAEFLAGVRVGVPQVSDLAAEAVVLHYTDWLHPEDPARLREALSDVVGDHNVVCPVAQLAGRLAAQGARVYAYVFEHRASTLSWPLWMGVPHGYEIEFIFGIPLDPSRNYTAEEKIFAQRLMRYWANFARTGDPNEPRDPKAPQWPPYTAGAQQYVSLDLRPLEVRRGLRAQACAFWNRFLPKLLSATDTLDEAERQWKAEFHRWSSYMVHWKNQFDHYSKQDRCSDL

| Compound | IC50 [3] [µM] | IC50 [4] [µM] | further results |
| --- | --- | --- | --- |
| Cc1ccc(-c2cn(Cc3ccc4ccccc4c3)nn2)cc1C(=O)NCCN1CCOCC1 [2-methyl-N-(2-morpholinoethyl)-5-(1-(naphthalen-2-ylmethyl)-1H-1,2,3-triazol-4-yl)benzamide] | – | – | IC50 ([1]; read-out: IC50 for BChE, previously reported triazole analog): 90.76 ± 0.21 µM |
| O=C1/C(=C\c2ccc(N3CCCC3)cc2)S/C(=N/N2CCOCC2)N1c1ccccc1 [(E)-2-(morpholinoimino)-3-phenyl-5-((E)-4-(pyrrolidin-1-yl)benzylidene)thiazolidin-4-one] | – | – | IC50 [2]: 17.4 ± 0.22 µM; IC50 ([1]; previously reported thiazolidinone analog, read-out: IC50 against BChE): 24.4 ± 0.51 µM |
| COc1cc(-c2nnc3[nH]ccn23)ccc1N1C(=O)CSC1c1ccc(F)cc1F (stereo not shown) [Analog 3] | 8.1 ± 0.4 | 8.5 ± 0.3 | – |
| COc1cc(-c2nnc3[nH]ccn23)ccc1N1C(=O)CSC1c1ccc(C(F)(F)F)cc1 (stereo not shown) [Analog 10] | 6.7 ± 0.2 | 7.1 ± 0.1 | Mode of inhibition (enzyme kinetics) [5]: competitive inhibitor |
| COc1cc(-c2nnc3[nH]ccn23)ccc1N1C(=O)CSC1c1ccc(F)cc1O (stereo not shown) [Analog 11] | 8.3 ± 0.2 | 8.6 ± 0.3 | – |
